Measured values reported in patent US5589472A, “Diindolo compounds and pharmaceutical compositions containing them” (priority 1995, dated 1996).
Where two headings read alike, the source gives them in different places.

Experiments:
Protein Kinase C ("PKC") = test: Protein Kinase C (PKC) in vitro inhibition (histone III-S phosphorylation); type: biochemical; settings: partially purified rat brain PKC, 5 μM ATP, 23° C., 15 minutes
Experimental: A. Protein Kinase C ("PKC") Protocol
Protein Kinase C (PKC) was partially purified from rat brain by chromatography on DEAE-Sephacel according to Shearman et al, Methods in Enzymology […] (1989) and Bishop et al, Biochemical Pharmacology 40:2129-2135 (1990)which are hereby incorporated by reference. PKC was assayed in a reaction mixture (0.25 mL total volume) containing: 20 mM Tris-HCl (pH 7.5); 200 μg/mL histone III-S 10 mM MgCl2; 5 μM [γ-^32 ] ATP (4×10^6 cpm/nmol); 200 μM CaCl2; 32 μg/mL phosphatidylserine; 1.6 μg/mL 1-oleoyl-2-acetyl glycerol and various concentrations of compounds of formula I of the invention were added from stock solutions in dimethylsulfoxide (DMSO). The final concentration of DMSO in the reaction was 2%. Reactions were started by addition of approximately 7 μg of partially purified PKC and allowed to proceed at 23° C. for 15 minutes. Reactions were terminated by addition of 1 mL of ice-cold 15% trichloracetic acid and 1 mL of cold 0.5 mg/mL bovine serum albumin to precipitate the histone III-S substrate. After 10 minutes on ice, precipitated phosphoproteins were collected on Whatman GF/C filters using a Brandel cell harvester. Filters were placed in scintillation vials with 5 mL of Ready Safe scintillation cocktail and radioactivity trapped on the filter was quantitated by liquid scintillation counting. Percent inhibition of PKC activity was calculated relative to the activity observed in the DMSO controls.

[1] = tested on: HT1080 human fibrosarcoma cells; test: Tumor Cell Invasion Assay (Matrigel); type: cell-based; settings: HT-1080, @ 45 μg/mL, 5 hours at 37° C.
Experimental: Tumor Cell Invasion Assay
The cell invasion assay quantitates the ability of malignant cells to invade a reconstituted basement membrane matrix. The assay is performed essentially as described in the two articles which are cited at the end of this sentence and which are herein incorporated by reference. Kramer et al Invasion of reconstituted basement membrane matrix by metastatic tumor cells. Cancer Res. 46: […]; and Albini et al A Rapid in vitro assay for quantitating the invasive potential of tumor cells. Cancer Res. 3239-3245, 198. Modifications were made to permit evaluation of pharmacologic effectors in this system and to increase screening throughput.
Polyvinylpyrrolidone-free polycarbonate filters (25×80 mm; 8 μm pore size (Nucleopore, Pleasantan, Calif.) were coated with 100 μg human fibronectin (Boehringer-Mannheim Corp., Indianapolis, Ind.) for 1 hour, permitted to air dry 5 to 10 minutes, and then coated overnight with Matrigel (500 μg/filter; Collaborative Research, Bedford, Mass.). Filters were then rehydrated with serum-free DMEM and assembled into 48-microwell chemotaxis chambers (Neuroprobe, Cabin Johbn, Md.). See Blood et al Identification of a tumor cell receptor for VGVAPG, an elastin-derived chemotactic peptide. J. Cell Biol. 107:1987-1994, 1988 which is herein incorporated by reference. Compounds tested were placed in upper wells of the chambers with HT1080 human fibrosarcoma cells (3.5×10^4 cells/well). For primary screens the final concentration of compounds was 45 μg/ml.
Chambers were incubated for 5 hours at 37° C. in a 5% CO2 humidified atmosphere. After incubation chambers were disassembled and the filters were fixed and stained with Diff-Quik reagents (Baxter Scientific, McGaw Park, Ind.). […] The filter was then mounted between 2 glass slides and tumor cells that had invaded the Matrigel barrier in each microwell were quantitated as "% area covered by cells" with a Cue-2 Image Analysis System (Olympus Corp., Lake Success, N.Y.). When assayed under these conditions HT1080 cells (with or without Dimethylsulfoxide (DMSO) as a vehicle control) typically invade such that 34-40% surface is covered by cells and an invasion to this degree is defined as 100% invasion for the purposes of this test. Effects of compounds on the invasion are expressed as % inhibition based on the value obtained with vehicle control.

[2] = tested on: Superoxide generation in human neutrophils; test: Neutrophil test: inhibition of superoxide generation in human neutrophils; type: cell-based; settings: 0.25 h, SO release induced by fMLP (100 nM) or PMA (100 nM), stimulus not stated, 15 minutes at 37° C.
Description: Inhibition of Superoxide Generation in Human Neutrophils
One of the histological changes which occurs in psoriasis is infiltration of neutrophils into epidermis and dermis. Superoxide (SO) generation by neutrophils causes oxidative tissue damage during inflammatory processes. PKC plays an essential role in SO release in neutrophils. Formyl peptides (fMLP), important chemoattractants involved in cell recruitment to local inflammatory sites, promote the release of SO anion. The tumor promoting phorbol ester, phorbol-12 myristate-13-acetate (PMA), also induces SO release.
Neutrophils were prepared from human peripheral blood. SO release was induced by fMLP (100 nM) or PMA (100 nM) and measured as SO dismutase-inhibitable reduction of cytochrome c. Preincubation of the compound tested with 3-5×10^6 cells was for 15 minutes in the presence of cytochalasin B ([…]) before addition of the stimulant, fMLP or PMA. 15 minutes after stimulation at 37° C., the reaction was stopped. The quantity of SO anion release was determined as the difference between the absorbance at 550 nm in the presence and absence of SO dismutase.
Antiinflammatory activity of the compounds of the invention was determined by use of the processes set forth in the following literature which is hereby incorporated by reference. Fischer et al Carcinogenesis 11:[…]; and Gupta et al Soc. Inv. Dermotol 91:5, 486-491, 1988 and Nakadate et al J. Pharmacolo. 38 161-168,(1985); and Viaje et al Cancer Res. 37,1530-1536, 1977.

Mouse skin = test: Mouse Skin Assay (TPA-induced blister formation); type: in vivo; settings: compound in acetone (25 μl), then TPA (12.5 μl); evaluated 18 hours after treatment
Experimental: Mice were treated first with compounds dissolved in acetone (25 μl), and then 30 seconds with TPA (12.5 μl). Blister formation was evaluated 18 hours after treatment. Each mouse was scored on a scale of 1-4 where 4 equals presence of a complete blister, 3 equals slight reduction in blister formation, 2 equals a 50% reduction in blister formation and 1 equals a complete absence of blisters.

[3] = read-out: IN VITRO INHIBITION OF PKC IC50 (nanomolar) except where otherwise indicated
[4] = read-out: IN VITRO INHIBITION OF PKC IC50 (unit indicated in cell)

| Compound | IC50 (Protein Kinase C ("PKC"); [3]) | IC50 (Protein Kinase C ("PKC"); [4]) | inhibition at 45 µg/mL [1] | IC50 [2] | Mouse Skin (active/inactive by visual evaluation of blister formation) (Mouse skin) |
| --- | --- | --- | --- | --- | --- |
| C[C@@H]1n2c3ccccc3c3c4c(c5c6ccccc6n(c5c32)[C@@H](C)S1(=O)=O)C(=O)NC4=O (relative stereo) [trans-25] | 120 nM |  |  |  |  |
| N=C1NC(=O)c2c1c1c3ccccc3n3c1c1c2c2ccccc2n1CN(Cc1ccccc1)C3 [Compound 1] |  | > 5000 nM |  |  |  |
| O=C1NC(=O)c2c1c1c3ccccc3n3c1c1c2c2ccccc2n1CN(Cc1ccccc1)C3 [Compound 2] |  | > 50000 nM | 35% |  |  |
| O=C1NC(=O)c2c1c1c3ccccc3n3c1c1c2c2ccccc2n1CN(O)C3 [Compound 3] | 90 nM |  | 48% |  |  |
| O=C1NC(=O)c2c1c1c3ccccc3n3c1c1c2c2ccccc2n1CNC3 [Compound 4] | 145 nM |  | 86% |  |  |
| CN1Cn2c3ccccc3c3c4c(c5c6ccccc6n(c5c32)C1)C(=O)NC4=N [Compound 5] | 150 nM |  | 46% |  |  |
| CN1Cn2c3ccccc3c3c4c(c5c6ccccc6n(c5c32)C1)C(=O)NC4=O [Compound 6] | 86 nM |  | 66% |  |  |
| O=C(O)CN1Cn2c3ccccc3c3c4c(c5c6ccccc6n(c5c32)C1)C(=O)NC4=O [Compound 7] | 480 nM |  | 0% |  |  |
| CN(C)CCN1Cn2c3ccccc3c3c4c(c5c6ccccc6n(c5c32)C1)C(=O)NC4=N [Compound 8] | 160 nM |  | 46% |  |  |
| CN(C)CCN1Cn2c3ccccc3c3c4c(c5c6ccccc6n(c5c32)C1)C(=O)NC4=O [Compound 9] | 120 nM |  | 52% |  |  |
| O=C1NC(=O)c2c1c1c3ccccc3n3c1c1c2c2ccccc2n1CN(CCO)C3 [Compound 10] | 17 nM |  | 72% |  |  |
| COCCOCCOCCN1Cn2c3ccccc3c3c4c(c5c6ccccc6n(c5c32)C1)C(=O)NC4=N [Compound 11] | ~500 nM |  | 42% |  |  |
| COCCOCCOCCN1Cn2c3ccccc3c3c4c(c5c6ccccc6n(c5c32)C1)C(=O)NC4=O [Compound 12] | ~100 nM |  | 20% |  |  |
| CN1Cn2c3ccccc3c3c4c(c5c6ccccc6n(c5c32)C1)C(=O)NC4 [Compound 13] | 90 nM |  | 26% |  |  |
| N=C1NC(=O)c2c1c1c3ccccc3n3c1c1c2c2ccccc2n1COC3 [Compound 15] | 62 nM |  | 30% |  |  |
| O=C1NC(=O)c2c1c1c3ccccc3n3c1c1c2c2ccccc2n1COC3 [Compound 16] | 11 nM |  | 46% |  |  |
| N=C1NC(=O)c2c1c1c3ccccc3n3c1c1c2c2ccccc2n1CSC3 [Compound 17] | 24 nM |  | 53% | > 10000 nM |  |
| O=C1NC(=O)c2c1c1c3ccccc3n3c1c1c2c2ccccc2n1CSC3 [Compound 18] | 14 nM |  | 18% | > 10000 nM |  |
| O=C1NCc2c1c1c3ccccc3n3c1c1c2c2ccccc2n1CSC3 [Compound 19] | 7 nM |  | 100% |  |  |
| O=C1NC(=O)c2c1c1c3ccccc3n3c1c1c2c2ccccc2n1C[S+]([O-])C3 [Compound 20] | 19 nM |  |  | > 10000 nM |  |
| O=C1NCc2c1c1c3ccccc3n3c1c1c2c2ccccc2n1CS(=O)(=O)C3 [Compound 23] | 5 nM |  | 57% | 900 nM | active |
| O=C1NC(=O)c2c1c1c3ccccc3n3c1c1c2c2ccccc2n1CS(=O)(=O)C3 [Compound 26] | 2 nM |  |  | 1600 nM | inactive |
| C[C@@H]1n2c3ccccc3c3c4c(c5c6ccccc6n(c5c32)[C@H](C)S1(=O)=O)C(=O)NC4=O [cis-25] | 2.4 nM |  |  |  |  |
